A short description of series [1]: Toxicity in NMRI mouse assessed as survival rate at 3.1 ug for 48 weeks measured after 24 weeks. The format is organism-based. Particulars: in vivo, read-out: Activity; call rule not given here.
The nature of series [2]: Toxicity in NMRI mouse back skin assessed as survival rate at 11.7 ug for 48 weeks measured after 24 weeks. Type of series: organism-based, Zone of skin. The conditions noted are these: in vivo, topical or ocular, read-out: Activity.
Series [3] is filed under the species Mus musculus. Description: Carcinogenic activity in NMRI mouse assessed as number of tumors per mouse at 12.2 ug for 34 weeks measured after 12 weeks. The format is ADME, organism-based. The conditions noted are these: in vivo, 2016 h.
Series [4] is filed under the species Mus musculus. The series is described as follows: Toxicity in NMRI mouse assessed as drug level required for irritant activity in 50% animal assessed per ear. The conditions noted are these: in vivo. Type of series: organism-based.
The nature of series [5]: Toxicity in NMRI mouse assessed as survival rate at 12.2 ug for 34 weeks measured after 24 weeks. The format is organism-based. Particulars: in vivo, read-out: Activity.
Series [6] is filed under the species Mus musculus. Description: Carcinogenic activity in NMRI mouse assessed as number of tumor bearing mouse at 12.2 ug for 34 weeks measured after 12 weeks. Type of series: ADME, organism-based. The conditions noted are these: in vivo, 2016 h.

This note sets out measurements from ChEMBL document CHEMBL1148994, “On the active principles of the spurge family, X. Skin irritants, cocarcinogens, and cryptic cocarcinogens from the latex of the manchineel tree” (J Nat Prod, 1984).

Structures are written as SMILES.

In the case of `C=C(C)[C@]12C[C@@H](C)[C@@]34O[C@](/C=C/C=C/CCCCCCCCC)(O[C@@H]1[C@@H]3[C@@H]1O[C@]1(CO)[C@@H](O)[C@]1(O)C(=O)C(C)=C[C@H]14)O2`, the survival at 4032 h in series [1] and in series [2] was 96% throughout.
As to `CCCCCCCCC/C=C/C=C/C=C/C(=O)O[C@@]12C[C@@H](C)[C@@]3(O)[C@H]([C@@H]1C2(C)C)[C@@H]1O[C@]1(CO)[C@@H](O)[C@]1(O)C(=O)C(C)=C[C@H]13` [MANCINELLIN], the Activity entry in series [3] is “Not Active”; in series [4], 0.15 µg; in series [6], “Not Active”. Moreover, in series [5], the survival at 4032 h is 100%.
For the molecule `CCCCCCCCCCCCCC(=O)O[C@@H]1[C@@H](C)[C@@]2(O)[C@@H](C=C(CO)C[C@]3(O)C(=O)C(C)=C[C@@H]23)[C@@H]2C(C)(C)[C@]12OC(C)=O` [TETRADECANOYL PHORBOL ACETATE], the Activity in series [4] was 0.01 µg. Besides, the survival at 4032 h in series [1] was 96%.
